Calls of active or inactive are those of the source.
How the values were obtained:
[1] = biological target: Mitogen-activated protein kinase 14 (Homo sapiens, UniProt Q16539)
[2] = biological target: TRAF2 and NCK-interacting protein kinase (Homo sapiens, UniProt Q9UKE5)
Obg-like ATPase 1 = Obg-like ATPase 1 (Homo sapiens, UniProt Q9NTK5)
[3] = biological target: T1, Acyl-CoA dehydrogenase family member 10 (Homo sapiens, UniProt Q6JQN1)
T1 sequence (Q6JQN1 whole entry): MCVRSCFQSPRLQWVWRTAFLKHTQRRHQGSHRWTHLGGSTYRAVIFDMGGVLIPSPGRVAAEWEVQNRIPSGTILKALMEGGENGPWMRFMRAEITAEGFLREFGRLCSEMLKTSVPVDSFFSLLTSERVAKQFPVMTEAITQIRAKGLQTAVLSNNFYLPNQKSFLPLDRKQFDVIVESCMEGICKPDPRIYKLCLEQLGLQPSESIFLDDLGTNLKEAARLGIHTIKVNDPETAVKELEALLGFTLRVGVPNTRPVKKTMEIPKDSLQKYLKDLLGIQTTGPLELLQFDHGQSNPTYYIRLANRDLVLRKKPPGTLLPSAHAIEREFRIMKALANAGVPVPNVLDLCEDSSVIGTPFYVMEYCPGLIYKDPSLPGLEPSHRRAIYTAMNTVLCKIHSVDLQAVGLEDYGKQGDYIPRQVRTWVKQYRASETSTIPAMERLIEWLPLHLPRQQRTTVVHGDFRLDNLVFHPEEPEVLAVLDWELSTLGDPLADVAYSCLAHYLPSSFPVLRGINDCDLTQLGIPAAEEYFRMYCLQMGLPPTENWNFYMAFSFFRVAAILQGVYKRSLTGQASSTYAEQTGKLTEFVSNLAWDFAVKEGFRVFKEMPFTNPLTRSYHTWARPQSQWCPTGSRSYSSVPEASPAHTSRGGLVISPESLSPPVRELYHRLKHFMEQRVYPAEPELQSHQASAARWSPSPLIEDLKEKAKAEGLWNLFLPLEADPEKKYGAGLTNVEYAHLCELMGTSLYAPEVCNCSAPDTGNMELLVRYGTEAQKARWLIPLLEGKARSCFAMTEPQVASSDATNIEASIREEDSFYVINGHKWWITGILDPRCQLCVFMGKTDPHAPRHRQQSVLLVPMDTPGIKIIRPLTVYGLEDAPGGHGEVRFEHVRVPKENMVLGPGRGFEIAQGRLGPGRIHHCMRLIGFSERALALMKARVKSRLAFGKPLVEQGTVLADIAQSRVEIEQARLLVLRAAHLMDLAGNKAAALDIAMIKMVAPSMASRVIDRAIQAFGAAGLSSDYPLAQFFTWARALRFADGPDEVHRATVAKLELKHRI

[4] = biological target: Dual specificity protein kinase CLK4 (Homo sapiens, UniProt Q9HAZ1)
[5] = biological target: Dual specificity protein kinase CLK2 (Homo sapiens, UniProt P49760)
[6] = biological target: T2, Serine/threonine-protein kinase Nek9 (Homo sapiens, UniProt Q8TD19)
T2 sequence (Q8TD19 whole entry): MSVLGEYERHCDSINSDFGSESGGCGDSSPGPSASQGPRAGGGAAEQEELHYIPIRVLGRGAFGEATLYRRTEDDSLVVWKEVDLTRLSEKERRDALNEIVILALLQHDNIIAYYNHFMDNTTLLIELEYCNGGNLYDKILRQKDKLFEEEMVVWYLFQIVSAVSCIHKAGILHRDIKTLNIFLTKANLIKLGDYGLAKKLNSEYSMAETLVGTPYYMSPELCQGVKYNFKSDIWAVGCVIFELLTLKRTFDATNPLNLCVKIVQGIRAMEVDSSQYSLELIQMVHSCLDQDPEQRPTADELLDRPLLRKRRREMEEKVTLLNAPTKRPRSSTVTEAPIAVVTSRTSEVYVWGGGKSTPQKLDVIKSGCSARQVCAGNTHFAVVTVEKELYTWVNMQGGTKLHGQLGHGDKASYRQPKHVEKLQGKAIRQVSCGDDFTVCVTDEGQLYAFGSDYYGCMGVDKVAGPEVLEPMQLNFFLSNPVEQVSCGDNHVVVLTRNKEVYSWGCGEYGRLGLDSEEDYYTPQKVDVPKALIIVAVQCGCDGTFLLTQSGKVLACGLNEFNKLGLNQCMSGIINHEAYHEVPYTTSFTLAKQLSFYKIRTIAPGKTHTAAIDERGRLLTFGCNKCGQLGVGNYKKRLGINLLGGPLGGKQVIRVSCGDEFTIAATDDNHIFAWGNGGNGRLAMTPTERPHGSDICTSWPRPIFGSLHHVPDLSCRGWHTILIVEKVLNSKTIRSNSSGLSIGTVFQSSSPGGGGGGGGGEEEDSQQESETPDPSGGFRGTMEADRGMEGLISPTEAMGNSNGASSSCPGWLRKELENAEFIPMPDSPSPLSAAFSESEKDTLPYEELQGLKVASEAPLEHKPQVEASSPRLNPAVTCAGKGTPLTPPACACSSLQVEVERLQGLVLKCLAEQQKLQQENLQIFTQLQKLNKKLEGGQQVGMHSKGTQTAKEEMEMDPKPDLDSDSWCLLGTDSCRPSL

[7] = biological target: Serine/threonine-protein kinase N3 (Homo sapiens, UniProt Q6P5Z2)
[8] = biological target: Tyrosine-protein kinase Lyn (Homo sapiens, UniProt P07948)
[9] = biological target: T3, Phosphatidylinositol 5-phosphate 4-kinase type-2 alpha (Homo sapiens, UniProt P48426)
T3 sequence (P48426 whole entry): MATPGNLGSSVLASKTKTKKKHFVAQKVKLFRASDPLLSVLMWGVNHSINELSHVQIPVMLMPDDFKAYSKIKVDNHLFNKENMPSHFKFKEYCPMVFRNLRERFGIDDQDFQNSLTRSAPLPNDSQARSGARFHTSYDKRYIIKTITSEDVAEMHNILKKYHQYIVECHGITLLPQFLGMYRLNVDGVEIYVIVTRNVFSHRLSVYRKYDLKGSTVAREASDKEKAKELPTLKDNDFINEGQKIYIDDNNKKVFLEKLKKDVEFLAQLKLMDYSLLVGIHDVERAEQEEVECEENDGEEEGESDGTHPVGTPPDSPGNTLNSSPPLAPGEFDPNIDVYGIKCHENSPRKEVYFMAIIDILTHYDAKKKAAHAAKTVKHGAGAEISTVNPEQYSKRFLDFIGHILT

[10] = biological target: Choline-phosphate cytidylyltransferase A (Homo sapiens, UniProt P49585)
Note: in the data inactive means no Kd found up to 30 µM.

Sequence of Serine/threonine-protein kinase N3 (Q6P5Z2 whole entry): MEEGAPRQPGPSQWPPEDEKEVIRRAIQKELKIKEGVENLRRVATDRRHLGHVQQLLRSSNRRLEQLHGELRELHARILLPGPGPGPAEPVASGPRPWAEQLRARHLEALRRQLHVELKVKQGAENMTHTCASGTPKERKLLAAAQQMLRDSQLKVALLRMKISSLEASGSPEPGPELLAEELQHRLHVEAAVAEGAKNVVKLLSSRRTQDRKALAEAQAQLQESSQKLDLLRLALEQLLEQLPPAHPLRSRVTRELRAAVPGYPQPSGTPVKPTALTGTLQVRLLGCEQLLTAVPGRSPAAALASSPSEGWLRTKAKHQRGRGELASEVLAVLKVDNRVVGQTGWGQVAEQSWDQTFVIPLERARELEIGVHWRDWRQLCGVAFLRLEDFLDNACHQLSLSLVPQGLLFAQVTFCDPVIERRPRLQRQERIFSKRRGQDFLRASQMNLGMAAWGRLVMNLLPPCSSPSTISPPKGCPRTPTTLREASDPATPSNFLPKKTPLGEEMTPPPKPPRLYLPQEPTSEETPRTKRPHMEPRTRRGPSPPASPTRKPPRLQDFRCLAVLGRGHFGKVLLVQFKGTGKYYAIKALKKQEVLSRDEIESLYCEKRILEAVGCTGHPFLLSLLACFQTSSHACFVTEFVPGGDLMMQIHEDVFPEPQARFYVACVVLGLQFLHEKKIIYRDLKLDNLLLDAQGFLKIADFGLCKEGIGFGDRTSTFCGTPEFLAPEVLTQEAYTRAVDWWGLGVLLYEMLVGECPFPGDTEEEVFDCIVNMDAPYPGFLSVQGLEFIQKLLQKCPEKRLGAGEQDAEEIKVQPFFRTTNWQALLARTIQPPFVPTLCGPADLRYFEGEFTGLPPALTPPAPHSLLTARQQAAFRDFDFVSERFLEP
Sequence of Tyrosine-protein kinase Lyn (P07948 whole entry): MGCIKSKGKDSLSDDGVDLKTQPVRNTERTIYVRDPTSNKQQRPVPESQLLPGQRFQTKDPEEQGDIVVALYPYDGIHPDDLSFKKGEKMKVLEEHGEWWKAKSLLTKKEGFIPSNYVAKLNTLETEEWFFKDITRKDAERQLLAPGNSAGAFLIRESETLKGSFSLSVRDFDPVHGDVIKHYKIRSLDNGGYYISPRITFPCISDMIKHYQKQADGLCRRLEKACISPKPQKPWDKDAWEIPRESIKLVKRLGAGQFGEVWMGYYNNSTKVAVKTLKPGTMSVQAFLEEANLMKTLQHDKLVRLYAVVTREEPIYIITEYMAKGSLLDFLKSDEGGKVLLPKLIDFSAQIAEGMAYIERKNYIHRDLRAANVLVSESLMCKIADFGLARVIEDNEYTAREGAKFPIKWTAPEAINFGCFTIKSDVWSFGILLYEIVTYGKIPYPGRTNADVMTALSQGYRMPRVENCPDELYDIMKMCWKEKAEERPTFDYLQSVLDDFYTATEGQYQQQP
Sequence of Dual specificity protein kinase CLK4 (Q9HAZ1 whole entry): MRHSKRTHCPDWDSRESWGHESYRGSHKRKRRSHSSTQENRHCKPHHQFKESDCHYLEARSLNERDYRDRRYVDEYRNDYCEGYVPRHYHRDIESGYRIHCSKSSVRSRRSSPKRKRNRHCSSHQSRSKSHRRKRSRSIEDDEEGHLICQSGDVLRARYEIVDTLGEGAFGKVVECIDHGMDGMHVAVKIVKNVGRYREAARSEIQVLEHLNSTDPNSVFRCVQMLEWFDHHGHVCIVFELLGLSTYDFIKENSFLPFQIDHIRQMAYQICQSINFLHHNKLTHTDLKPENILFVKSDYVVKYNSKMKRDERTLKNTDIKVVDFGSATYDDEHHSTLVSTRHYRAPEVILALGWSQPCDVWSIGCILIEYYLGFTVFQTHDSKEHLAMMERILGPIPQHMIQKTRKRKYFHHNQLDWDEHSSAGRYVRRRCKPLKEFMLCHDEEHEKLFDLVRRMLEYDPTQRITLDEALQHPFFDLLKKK
Sequence of TRAF2 and NCK-interacting protein kinase (Q9UKE5 whole entry): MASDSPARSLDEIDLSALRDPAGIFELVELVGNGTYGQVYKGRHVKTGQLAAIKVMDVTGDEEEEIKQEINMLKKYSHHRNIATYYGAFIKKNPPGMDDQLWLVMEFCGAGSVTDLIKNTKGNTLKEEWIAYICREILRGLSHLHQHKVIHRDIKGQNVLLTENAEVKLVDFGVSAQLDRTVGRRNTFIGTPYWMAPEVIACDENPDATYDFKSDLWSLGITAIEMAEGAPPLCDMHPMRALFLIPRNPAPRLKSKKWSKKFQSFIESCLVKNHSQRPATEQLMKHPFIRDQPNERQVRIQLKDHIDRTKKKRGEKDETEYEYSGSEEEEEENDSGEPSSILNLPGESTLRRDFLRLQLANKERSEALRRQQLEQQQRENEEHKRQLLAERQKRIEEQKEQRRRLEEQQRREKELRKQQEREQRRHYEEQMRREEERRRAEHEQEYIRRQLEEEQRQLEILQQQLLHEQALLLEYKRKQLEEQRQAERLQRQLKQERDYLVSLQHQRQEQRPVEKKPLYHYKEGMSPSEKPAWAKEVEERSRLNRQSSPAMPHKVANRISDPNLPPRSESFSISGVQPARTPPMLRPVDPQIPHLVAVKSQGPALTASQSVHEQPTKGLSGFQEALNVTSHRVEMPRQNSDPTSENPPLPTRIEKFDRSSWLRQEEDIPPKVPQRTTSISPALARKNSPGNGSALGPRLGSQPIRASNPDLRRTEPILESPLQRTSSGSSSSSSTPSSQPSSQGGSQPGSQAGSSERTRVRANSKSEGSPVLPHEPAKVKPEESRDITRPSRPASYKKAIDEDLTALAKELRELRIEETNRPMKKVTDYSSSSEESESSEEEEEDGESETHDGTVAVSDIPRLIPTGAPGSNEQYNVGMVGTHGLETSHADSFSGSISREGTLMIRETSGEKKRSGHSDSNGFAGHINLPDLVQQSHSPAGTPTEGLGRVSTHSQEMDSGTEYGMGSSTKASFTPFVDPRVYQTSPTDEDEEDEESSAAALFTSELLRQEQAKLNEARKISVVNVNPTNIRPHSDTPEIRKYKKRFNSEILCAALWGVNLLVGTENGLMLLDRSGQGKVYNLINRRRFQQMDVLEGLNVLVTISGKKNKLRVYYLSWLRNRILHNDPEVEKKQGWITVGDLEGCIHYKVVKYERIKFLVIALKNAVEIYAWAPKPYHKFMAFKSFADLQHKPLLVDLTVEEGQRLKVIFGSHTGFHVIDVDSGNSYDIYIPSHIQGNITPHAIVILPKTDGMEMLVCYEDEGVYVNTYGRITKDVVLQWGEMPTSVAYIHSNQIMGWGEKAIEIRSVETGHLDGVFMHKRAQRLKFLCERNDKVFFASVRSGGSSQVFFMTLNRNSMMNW
Sequence of Mitogen-activated protein kinase 14 (Q16539 whole entry): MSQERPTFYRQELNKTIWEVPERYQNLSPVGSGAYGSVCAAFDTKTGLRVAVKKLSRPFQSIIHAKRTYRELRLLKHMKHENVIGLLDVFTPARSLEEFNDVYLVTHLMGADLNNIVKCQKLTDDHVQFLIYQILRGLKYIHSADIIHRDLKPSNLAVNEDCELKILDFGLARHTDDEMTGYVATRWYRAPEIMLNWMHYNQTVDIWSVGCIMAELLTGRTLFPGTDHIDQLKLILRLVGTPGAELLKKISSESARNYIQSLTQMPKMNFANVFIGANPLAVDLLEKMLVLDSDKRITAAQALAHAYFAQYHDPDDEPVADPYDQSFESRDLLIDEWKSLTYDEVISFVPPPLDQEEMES
Sequence of Obg-like ATPase 1 (Q9NTK5 whole entry, looked up): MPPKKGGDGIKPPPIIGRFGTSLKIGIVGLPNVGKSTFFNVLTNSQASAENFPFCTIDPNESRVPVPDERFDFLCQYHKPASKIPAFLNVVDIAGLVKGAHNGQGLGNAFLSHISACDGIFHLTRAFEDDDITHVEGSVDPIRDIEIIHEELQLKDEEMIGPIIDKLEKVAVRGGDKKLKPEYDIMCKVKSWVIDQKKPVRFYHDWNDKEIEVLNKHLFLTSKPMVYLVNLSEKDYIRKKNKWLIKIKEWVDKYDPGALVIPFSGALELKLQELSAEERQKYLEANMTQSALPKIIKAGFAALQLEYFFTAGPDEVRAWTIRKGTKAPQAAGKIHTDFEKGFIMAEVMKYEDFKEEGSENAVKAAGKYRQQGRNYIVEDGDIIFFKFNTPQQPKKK
Sequence of Dual specificity protein kinase CLK2 (P49760 whole entry): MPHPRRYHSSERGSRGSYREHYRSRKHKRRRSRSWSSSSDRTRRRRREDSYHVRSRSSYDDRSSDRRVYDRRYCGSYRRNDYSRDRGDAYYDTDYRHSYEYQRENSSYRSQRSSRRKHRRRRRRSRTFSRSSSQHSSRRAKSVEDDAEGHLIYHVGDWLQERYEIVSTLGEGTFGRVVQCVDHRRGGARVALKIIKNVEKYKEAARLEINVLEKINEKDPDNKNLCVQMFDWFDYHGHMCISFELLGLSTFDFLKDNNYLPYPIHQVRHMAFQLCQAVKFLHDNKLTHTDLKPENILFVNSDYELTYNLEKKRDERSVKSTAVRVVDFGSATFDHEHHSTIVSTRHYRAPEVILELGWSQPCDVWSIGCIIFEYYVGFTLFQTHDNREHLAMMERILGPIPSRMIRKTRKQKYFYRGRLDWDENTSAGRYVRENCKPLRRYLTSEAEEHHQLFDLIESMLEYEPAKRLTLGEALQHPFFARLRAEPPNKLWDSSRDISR
Sequence of Choline-phosphate cytidylyltransferase A (P49585 whole entry): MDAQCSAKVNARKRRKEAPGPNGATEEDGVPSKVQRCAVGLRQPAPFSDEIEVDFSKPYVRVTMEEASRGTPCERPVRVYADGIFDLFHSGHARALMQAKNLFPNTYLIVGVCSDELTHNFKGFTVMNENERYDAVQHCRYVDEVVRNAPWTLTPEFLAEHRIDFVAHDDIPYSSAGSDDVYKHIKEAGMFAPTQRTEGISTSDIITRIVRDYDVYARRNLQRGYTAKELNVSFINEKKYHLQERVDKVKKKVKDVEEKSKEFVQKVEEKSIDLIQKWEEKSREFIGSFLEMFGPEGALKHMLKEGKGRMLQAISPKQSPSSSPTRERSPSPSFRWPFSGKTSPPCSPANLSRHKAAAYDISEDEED

| Structure (SMILES) | Kd [1] | Kd [2] | Kd (Obg-like ATPase 1) | Kd [3] | Kd [4] | Kd [5] | Kd [6] | Kd [7] | Kd [8] | Kd [9] | Kd [10] |
| --- | --- | --- | --- | --- | --- | --- | --- | --- | --- | --- | --- |
| O=c1sn(-c2cccc3ccccc23)c(=O)n1Cc1ccccc1 [TIDEGLUSIB] | > 30 µM (inactive) | > 30 µM (inactive) | > 30 µM (inactive) | > 30 µM (inactive) | > 30 µM (inactive) | > 30 µM (inactive) | > 30 µM (inactive) | > 30 µM (inactive) | > 30 µM (inactive) | – | – |
| CNS(=O)(=O)Nc1nccc(Cc2c(C)c3ccc(Oc4ncccn4)cc3oc2=O)c1F [AVUTOMETINIB] | > 30 µM (inactive) | > 30 µM (inactive) | > 30 µM (inactive) | > 30 µM (inactive) | > 30 µM (inactive) | > 30 µM (inactive) | > 30 µM (inactive) | > 30 µM (inactive) | > 30 µM (inactive) | > 30 µM (inactive) | – |
| COc1ccc(-c2ccc3c(N4CCOC[C@@H]4C)nc(N4CCOC[C@@H]4C)nc3n2)cc1CO [AZD-8055] | > 30 µM (inactive) | > 30 µM (inactive) | > 30 µM (inactive) | > 30 µM (inactive) | > 30 µM (inactive) | > 30 µM (inactive) | > 30 µM (inactive) | > 30 µM (inactive) | > 30 µM (inactive) | > 30 µM (inactive) | – |
| CCCS(=O)(=O)Nc1ccc(F)c(C(=O)c2c[nH]c3ncc(-c4ccc(Cl)cc4)cc23)c1F [VEMURAFENIB] | > 30 µM (inactive) | > 30 µM (inactive) | > 30 µM (inactive) | > 30 µM (inactive) | > 30 µM (inactive) | > 30 µM (inactive) | > 30 µM (inactive) | > 30 µM (inactive) | > 30 µM (inactive) | > 30 µM (inactive) | – |
| COC(=O)[C@@]1(O)C[C@H]2O[C@]1(C)n1c3ccccc3c3c4c(c5c6ccccc6n2c5c31)C(=O)NC4 [K-252A] | > 30 µM (inactive) | 0.01 µM (active) | – | > 30 µM (inactive) | 0.015 µM (active) | 3.81 µM (active) | > 30 µM (inactive) | > 30 µM (inactive) | > 30 µM (inactive) | > 30 µM (inactive) | – |
| C[C@@H](c1ccc2nccn2c1)n1nnc2ncc(-c3cnn(C)c3)nc21 [SAVOLITINIB] | > 30 µM (inactive) | > 30 µM (inactive) | – | > 30 µM (inactive) | > 30 µM (inactive) | > 30 µM (inactive) | > 30 µM (inactive) | – | > 30 µM (inactive) | > 30 µM (inactive) | – |
| CC[C@H](Nc1ncnc2[nH]cnc12)c1nc2cccc(F)c2c(=O)n1-c1ccccc1 [IDELALISIB] | > 30 µM (inactive) | > 30 µM (inactive) | – | > 30 µM (inactive) | > 30 µM (inactive) | > 30 µM (inactive) | > 30 µM (inactive) | > 30 µM (inactive) | > 30 µM (inactive) | > 30 µM (inactive) | – |
| Cc1cc(Nc2cc(N3CCN(C)CC3)nc(/C=C/c3ccccc3)n2)n[nH]1 [ENMD-2076] | – | – | > 30 µM (inactive) | > 30 µM (inactive) | – | – | – | – | > 30 µM (inactive) | – | > 30 µM (inactive) |
| CC(C)Nc1cc(-c2c[nH]c(C(=O)N[C@H](CO)c3cccc(Cl)c3)c2)c(Cl)cn1 [ULIXERTINIB] | > 30 µM (inactive) | > 30 µM (inactive) | – | > 30 µM (inactive) | > 30 µM (inactive) | – | > 30 µM (inactive) | – | > 30 µM (inactive) | > 30 µM (inactive) | – |
| CN1CC[C@@H](c2c(O)cc(O)c3c(=O)cc(-c4ccccc4Cl)oc23)[C@@H]1CO | > 30 µM (inactive) | > 30 µM (inactive) | > 30 µM (inactive) | > 30 µM (inactive) | > 30 µM (inactive) | > 30 µM (inactive) | > 30 µM (inactive) | > 30 µM (inactive) | > 30 µM (inactive) | – | – |
| Cc1ccc(S(=O)(=O)Nc2nc3ccccc3nc2Nc2ccc3nsnc3c2)cc1 | > 30 µM (inactive) | > 30 µM (inactive) | > 30 µM (inactive) | > 30 µM (inactive) | > 30 µM (inactive) | > 30 µM (inactive) | > 30 µM (inactive) | > 30 µM (inactive) | > 30 µM (inactive) | > 30 µM (inactive) | – |
| COc1cc2nccc(Oc3ccc(NC(=O)NC4CC4)c(Cl)c3)c2cc1C(N)=O [LENVATINIB] | 0.217 µM (active) | 0.565 µM (active) | > 30 µM (inactive) | > 30 µM (inactive) | > 30 µM (inactive) | > 30 µM (inactive) | > 30 µM (inactive) | > 30 µM (inactive) | > 30 µM (inactive) | > 30 µM (inactive) | – |
| CCS(=O)(=O)N1CC(CC#N)(n2cc(-c3ncnc4[nH]ccc34)cn2)C1 [BARICITINIB] | > 30 µM (inactive) | > 30 µM (inactive) | > 30 µM (inactive) | > 30 µM (inactive) | > 30 µM (inactive) | > 30 µM (inactive) | > 30 µM (inactive) | – | > 30 µM (inactive) | – | – |
| CN1CCN(c2ccc3nc(-c4c(N)c5c(F)cccc5[nH]c4=O)[nH]c3c2)CC1 [DOVITINIB] | – | – | > 30 µM (inactive) | > 30 µM (inactive) | – | – | – | – | – | > 30 µM (inactive) | > 30 µM (inactive) |
| C[C@@H]1CN(Cc2ccc(F)cc2)[C@@H](C)CN1C(=O)c1cc2c(C(=O)C(=O)N(C)C)cn(C)c2cc1Cl [TALMAPIMOD] | – | > 30 µM (inactive) | > 30 µM (inactive) | > 30 µM (inactive) | > 30 µM (inactive) | > 30 µM (inactive) | > 30 µM (inactive) | > 30 µM (inactive) | > 30 µM (inactive) | > 30 µM (inactive) | – |
| COc1cc(CCc2cc(NC(=O)c3ccc(N4C[C@@H](C)N[C@@H](C)C4)cc3)n[nH]2)cc(OC)c1 [AZD-4547] | > 30 µM (inactive) | 1.39 µM | – | > 30 µM (inactive) | > 30 µM (inactive) | > 30 µM (inactive) | > 30 µM (inactive) | > 30 µM (inactive) | > 30 µM (inactive) | > 30 µM (inactive) | – |
